Experiments:
[1] = Inhibition of trypsin at 25 uM assessed as Kinact/Ki ratio incubated for 15 mins by spectrofluorometry
[2] = Inhibition of chymotrypsin at 25 uM assessed as Kinact/Ki ratio incubated for 15 mins by spectrofluorometry
[3] = biological target: Pancreatic elastase (Sus scrofa) (UniProt P08419+P00772); experiment: Inhibition of porcine pancreatic elastase at 25 uM assessed as Kinact/Ki ratio incubated for 15 mins by spectrofluorometry; assay type: protein assay
[4] = biological target: T1, Neutrophil elastase (Homo sapiens) (UniProt P08246); experiment: Inhibition of human leukocyte elastase at 25 uM assessed as Kinact/Ki ratio incubated for 15 mins by spectrofluorometry
T1 sequence (whole entry): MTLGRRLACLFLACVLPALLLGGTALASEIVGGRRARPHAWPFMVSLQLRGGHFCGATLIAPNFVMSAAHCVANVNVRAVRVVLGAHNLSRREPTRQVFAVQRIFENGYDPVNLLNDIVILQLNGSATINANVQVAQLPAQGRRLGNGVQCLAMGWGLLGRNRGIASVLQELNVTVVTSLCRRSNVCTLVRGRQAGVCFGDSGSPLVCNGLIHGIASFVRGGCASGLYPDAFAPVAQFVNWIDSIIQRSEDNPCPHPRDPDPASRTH

| Structure (SMILES) | inhibition [1] | Ratio [2] | Ratio [3] | Ratio [4] | Ratio [1] | inhibition [2] |
| --- | --- | --- | --- | --- | --- | --- |
| CCc1ccc(OP(=O)(Oc2ccc(CC)cc2)C(C)NC(=O)[C@@H]2CCCN2C(=O)[C@@H](NC(=O)OC(C)(C)C)C(C)C)cc1 (mixture of isomers) | < 5% | < 50 M⁻¹ s⁻¹ | 1100 M⁻¹ s⁻¹ | 870 M⁻¹ s⁻¹ |  |  |
| CCCCC(NC(=O)[C@@H]1CCCN1C(=O)[C@@H](NC(=O)OC(C)(C)C)C(C)C)P(=O)(Oc1ccccc1)Oc1ccccc1 (mixture of isomers) |  | 400 M⁻¹ s⁻¹ | 1700 M⁻¹ s⁻¹ | 650 M⁻¹ s⁻¹ | < 50 M⁻¹ s⁻¹ |  |
| CSc1ccc(OP(=O)(Oc2ccc(SC)cc2)C(NC(=O)[C@@H]2CCCN2C(=O)[C@@H](C)NC(=O)OC(C)(C)C)C(C)C)cc1 (mixture of isomers) |  | < 50 M⁻¹ s⁻¹ | 900 M⁻¹ s⁻¹ | 39400 M⁻¹ s⁻¹ | < 50 M⁻¹ s⁻¹ |  |
| CSc1ccc(OP(=O)(Oc2ccc(SC)cc2)C(NC(=O)[C@@H]2CCCN2C(=O)[C@H](CC(C)C)NC(=O)OC(C)(C)C)C(C)C)cc1 (mixture of isomers) |  | 150 M⁻¹ s⁻¹ | 7000 M⁻¹ s⁻¹ | 128000 M⁻¹ s⁻¹ | < 50 M⁻¹ s⁻¹ |  |
| CSc1ccc(OP(=O)(Oc2ccc(SC)cc2)C(C)NC(=O)[C@@H]2CCCN2C(=O)[C@@H](NC(=O)OC(C)(C)C)C(C)C)cc1 (mixture of isomers) |  | < 50 M⁻¹ s⁻¹ | 11400 M⁻¹ s⁻¹ | 3500 M⁻¹ s⁻¹ | < 50 M⁻¹ s⁻¹ |  |
| CCC(NC(=O)[C@@H]1CCCN1C(=O)[C@@H](NC(=O)OC(C)(C)C)C(C)C)P(=O)(Oc1ccc(SC)cc1)Oc1ccc(SC)cc1 (mixture of isomers) |  | 365 M⁻¹ s⁻¹ | 60100 M⁻¹ s⁻¹ | 165000 M⁻¹ s⁻¹ | 460 M⁻¹ s⁻¹ |  |
| CCc1ccc(OP(=O)(Oc2ccc(CC)cc2)C(NC(=O)[C@@H]2CCCN2C(=O)[C@@H](NC(=O)OC(C)(C)C)C(C)C)C(C)C)cc1 (mixture of isomers) | < 5% |  | 6000 M⁻¹ s⁻¹ | 6800 M⁻¹ s⁻¹ |  | < 5% |
| CC(C)C(NC(=O)[C@@H]1CCCN1C(=O)[C@@H](NC(=O)OC(C)(C)C)C(C)C)P(=O)(Oc1ccc(C(C)(C)C)cc1)Oc1ccc(C(C)(C)C)cc1 (mixture of isomers) | < 5% |  | 700 M⁻¹ s⁻¹ | 3450 M⁻¹ s⁻¹ |  | < 5% |
| CSc1ccc(OP(=O)(Oc2ccc(SC)cc2)[C@H](NC(=O)[C@@H]2CCCN2C(=O)[C@@H](NC(=O)OC(C)(C)C)C(C)C)C(C)C)cc1 | < 5% | < 50 M⁻¹ s⁻¹ | < 50 M⁻¹ s⁻¹ | 2650 M⁻¹ s⁻¹ |  |  |
| CSc1ccc(OP(=O)(Oc2ccc(SC)cc2)C(NC(=O)[C@@H]2CCCN2C(=O)CNC(=O)OCc2ccccc2)C(C)C)cc1 (mixture of isomers) |  | 200 M⁻¹ s⁻¹ | 1200 M⁻¹ s⁻¹ | 39000 M⁻¹ s⁻¹ | < 50 M⁻¹ s⁻¹ |  |
| CC(C)c1ccc(OP(=O)(Oc2ccc(C(C)C)cc2)C(C)NC(=O)[C@@H]2CCCN2C(=O)[C@@H](NC(=O)OC(C)(C)C)C(C)C)cc1 (mixture of isomers) | < 5% | < 50 M⁻¹ s⁻¹ | 300 M⁻¹ s⁻¹ | < 50 M⁻¹ s⁻¹ |  |  |
| CSc1ccc(OP(=O)(Oc2ccc(SC)cc2)C(NC(=O)[C@@H]2CCCN2C(=O)[C@H](COC(C)(C)C)NC(=O)OCc2ccccc2)C(C)C)cc1 (mixture of isomers) |  | 500 M⁻¹ s⁻¹ | 4300 M⁻¹ s⁻¹ | 162000 M⁻¹ s⁻¹ | < 50 M⁻¹ s⁻¹ |  |
| CC(C)CC(NC(=O)[C@@H]1CCCN1C(=O)[C@@H](NC(=O)OC(C)(C)C)C(C)C)P(=O)(Oc1ccccc1)Oc1ccccc1 (mixture of isomers) |  | 1900 M⁻¹ s⁻¹ | 1300 M⁻¹ s⁻¹ | 325 M⁻¹ s⁻¹ | < 50 M⁻¹ s⁻¹ |  |
| CCC(NC(=O)[C@@H]1CCCN1C(=O)[C@@H](NC(=O)OC(C)(C)C)C(C)C)P(=O)(Oc1ccccc1)Oc1ccccc1 (mixture of isomers) |  | < 50 M⁻¹ s⁻¹ | 12700 M⁻¹ s⁻¹ | 7100 M⁻¹ s⁻¹ | < 50 M⁻¹ s⁻¹ |  |
